Blank lines part the entries; values can stand above or below the compound they belong to.
Columns and labels:
[1] = molecular target: Activin receptor type-1 (Homo sapiens, UniProt Q04771); assay: Selectivity interaction (KinomeScan (DiscoverX, competition-binding assay)) EUB0000207b ACVR1
[2] = molecular target: T1, 5-hydroxytryptamine receptor 2B (Homo sapiens, UniProt P41595); assay: (§1) Selectivity interaction (Enzyme panel (kinases, GPCRs, ion channels, transporters)) EUB0000197b HTR2B; settings: at 10 µM
T1 sequence (P41595 whole entry): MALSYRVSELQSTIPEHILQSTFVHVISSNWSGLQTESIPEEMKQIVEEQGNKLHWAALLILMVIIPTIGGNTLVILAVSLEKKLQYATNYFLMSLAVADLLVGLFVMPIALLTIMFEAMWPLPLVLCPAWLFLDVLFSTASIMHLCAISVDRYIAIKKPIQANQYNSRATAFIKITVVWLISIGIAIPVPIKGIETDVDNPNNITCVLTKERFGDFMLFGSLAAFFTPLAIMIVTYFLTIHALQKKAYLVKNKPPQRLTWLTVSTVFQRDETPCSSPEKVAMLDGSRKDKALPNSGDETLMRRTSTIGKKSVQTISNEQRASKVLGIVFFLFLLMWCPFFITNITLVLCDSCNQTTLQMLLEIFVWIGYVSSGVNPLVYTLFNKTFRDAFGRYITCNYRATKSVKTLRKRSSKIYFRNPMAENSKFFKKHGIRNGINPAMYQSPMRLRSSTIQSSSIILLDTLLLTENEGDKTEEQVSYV

[3] = molecular target: cGMP-dependent protein kinase 2 (Homo sapiens) (UniProt Q13237); assay: Selectivity interaction (Enzyme panel (kinases, GPCRs, ion channels, transporters)) EUB0000197b PRKG2; settings: at 10 µM
[4] = molecular target: T1, 5-hydroxytryptamine receptor 2B; assay: as §1
[5] = molecular target: Protein N-lysine methyltransferase METTL21A (Homo sapiens) (UniProt Q8WXB1); assay: Selectivity interaction (Methyltransferase panel) EUB0000197b METTL21A
Sequence of Protein N-lysine methyltransferase METTL21A (Homo sapiens) (Q8WXB1 whole entry): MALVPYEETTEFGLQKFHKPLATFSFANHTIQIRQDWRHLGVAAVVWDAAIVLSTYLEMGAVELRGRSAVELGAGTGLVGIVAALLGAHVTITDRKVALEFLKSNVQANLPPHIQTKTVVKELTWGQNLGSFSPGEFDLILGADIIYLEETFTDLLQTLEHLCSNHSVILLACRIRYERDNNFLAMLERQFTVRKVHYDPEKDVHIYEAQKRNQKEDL

[6] = molecular target: Serine/threonine-protein kinase BRSK1 (Homo sapiens) (UniProt Q8TDC3); assay: Selectivity interaction (Enzyme panel (kinases, GPCRs, ion channels, transporters)) EUB0000197b BRSK1; settings: at 10 µM
[7] = molecular target: cAMP-dependent protein kinase catalytic subunit PRKX (Homo sapiens) (UniProt P51817); assay: Selectivity interaction (Enzyme panel (kinases, GPCRs, ion channels, transporters)) EUB0000197b PRKX; settings: at 10 µM
[8] = molecular target: Mitogen-activated protein kinase kinase kinase 12 (Homo sapiens) (UniProt Q12852); assay: Selectivity interaction (Enzyme panel (kinases, GPCRs, ion channels, transporters)) EUB0000197b DLK1; settings: at 10 µM
[9] = molecular target: Ribosomal protein S6 kinase alpha-4 (Homo sapiens) (UniProt O75676); assay: Selectivity interaction (Enzyme panel (kinases, GPCRs, ion channels, transporters)) EUB0000197b RPS6KA4; settings: at 10 µM
[10] = molecular target: T2, Protein arginine N-methyltransferase 5 (Homo sapiens, UniProt O14744); assay: Selectivity interaction (Methyltransferase panel (radioactive enzyme assay)) EUB0000216b PRMT5
[11] = molecular target: T3, Histone-lysine N-methyltransferase SUV39H2 (Homo sapiens, UniProt Q9H5I1); assay: Selectivity interaction (Methyltransferase panel (radioactive enzyme assay)) EUB0000216b SUV39H2
T3 sequence (Q9H5I1 whole entry): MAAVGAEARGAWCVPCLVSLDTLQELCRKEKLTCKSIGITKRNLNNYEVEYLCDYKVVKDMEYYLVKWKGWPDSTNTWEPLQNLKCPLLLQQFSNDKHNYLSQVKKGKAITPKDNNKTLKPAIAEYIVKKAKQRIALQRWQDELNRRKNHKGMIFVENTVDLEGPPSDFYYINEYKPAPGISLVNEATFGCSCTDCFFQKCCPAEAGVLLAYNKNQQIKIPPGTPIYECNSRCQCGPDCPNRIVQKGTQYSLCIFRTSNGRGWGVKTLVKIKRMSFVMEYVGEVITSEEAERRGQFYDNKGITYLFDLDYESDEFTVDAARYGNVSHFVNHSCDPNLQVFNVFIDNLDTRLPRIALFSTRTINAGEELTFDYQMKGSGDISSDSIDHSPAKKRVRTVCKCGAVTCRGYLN

[12] = molecular target: T4, Histone-lysine N-methyltransferase EHMT1 (Homo sapiens, UniProt Q9H9B1); assay: Selectivity interaction (Methyltransferase panel (radioactive enzyme assay)) EUB0000216b EHMT1
[13] = molecular target: T5, Histone-lysine N-methyltransferase 2A (Homo sapiens, UniProt Q03164); assay: Selectivity interaction (Methyltransferase panel (radioactive enzyme assay)) EUB0000216b MLL
T5 sequence (Q03164 1-2718 limits assumed): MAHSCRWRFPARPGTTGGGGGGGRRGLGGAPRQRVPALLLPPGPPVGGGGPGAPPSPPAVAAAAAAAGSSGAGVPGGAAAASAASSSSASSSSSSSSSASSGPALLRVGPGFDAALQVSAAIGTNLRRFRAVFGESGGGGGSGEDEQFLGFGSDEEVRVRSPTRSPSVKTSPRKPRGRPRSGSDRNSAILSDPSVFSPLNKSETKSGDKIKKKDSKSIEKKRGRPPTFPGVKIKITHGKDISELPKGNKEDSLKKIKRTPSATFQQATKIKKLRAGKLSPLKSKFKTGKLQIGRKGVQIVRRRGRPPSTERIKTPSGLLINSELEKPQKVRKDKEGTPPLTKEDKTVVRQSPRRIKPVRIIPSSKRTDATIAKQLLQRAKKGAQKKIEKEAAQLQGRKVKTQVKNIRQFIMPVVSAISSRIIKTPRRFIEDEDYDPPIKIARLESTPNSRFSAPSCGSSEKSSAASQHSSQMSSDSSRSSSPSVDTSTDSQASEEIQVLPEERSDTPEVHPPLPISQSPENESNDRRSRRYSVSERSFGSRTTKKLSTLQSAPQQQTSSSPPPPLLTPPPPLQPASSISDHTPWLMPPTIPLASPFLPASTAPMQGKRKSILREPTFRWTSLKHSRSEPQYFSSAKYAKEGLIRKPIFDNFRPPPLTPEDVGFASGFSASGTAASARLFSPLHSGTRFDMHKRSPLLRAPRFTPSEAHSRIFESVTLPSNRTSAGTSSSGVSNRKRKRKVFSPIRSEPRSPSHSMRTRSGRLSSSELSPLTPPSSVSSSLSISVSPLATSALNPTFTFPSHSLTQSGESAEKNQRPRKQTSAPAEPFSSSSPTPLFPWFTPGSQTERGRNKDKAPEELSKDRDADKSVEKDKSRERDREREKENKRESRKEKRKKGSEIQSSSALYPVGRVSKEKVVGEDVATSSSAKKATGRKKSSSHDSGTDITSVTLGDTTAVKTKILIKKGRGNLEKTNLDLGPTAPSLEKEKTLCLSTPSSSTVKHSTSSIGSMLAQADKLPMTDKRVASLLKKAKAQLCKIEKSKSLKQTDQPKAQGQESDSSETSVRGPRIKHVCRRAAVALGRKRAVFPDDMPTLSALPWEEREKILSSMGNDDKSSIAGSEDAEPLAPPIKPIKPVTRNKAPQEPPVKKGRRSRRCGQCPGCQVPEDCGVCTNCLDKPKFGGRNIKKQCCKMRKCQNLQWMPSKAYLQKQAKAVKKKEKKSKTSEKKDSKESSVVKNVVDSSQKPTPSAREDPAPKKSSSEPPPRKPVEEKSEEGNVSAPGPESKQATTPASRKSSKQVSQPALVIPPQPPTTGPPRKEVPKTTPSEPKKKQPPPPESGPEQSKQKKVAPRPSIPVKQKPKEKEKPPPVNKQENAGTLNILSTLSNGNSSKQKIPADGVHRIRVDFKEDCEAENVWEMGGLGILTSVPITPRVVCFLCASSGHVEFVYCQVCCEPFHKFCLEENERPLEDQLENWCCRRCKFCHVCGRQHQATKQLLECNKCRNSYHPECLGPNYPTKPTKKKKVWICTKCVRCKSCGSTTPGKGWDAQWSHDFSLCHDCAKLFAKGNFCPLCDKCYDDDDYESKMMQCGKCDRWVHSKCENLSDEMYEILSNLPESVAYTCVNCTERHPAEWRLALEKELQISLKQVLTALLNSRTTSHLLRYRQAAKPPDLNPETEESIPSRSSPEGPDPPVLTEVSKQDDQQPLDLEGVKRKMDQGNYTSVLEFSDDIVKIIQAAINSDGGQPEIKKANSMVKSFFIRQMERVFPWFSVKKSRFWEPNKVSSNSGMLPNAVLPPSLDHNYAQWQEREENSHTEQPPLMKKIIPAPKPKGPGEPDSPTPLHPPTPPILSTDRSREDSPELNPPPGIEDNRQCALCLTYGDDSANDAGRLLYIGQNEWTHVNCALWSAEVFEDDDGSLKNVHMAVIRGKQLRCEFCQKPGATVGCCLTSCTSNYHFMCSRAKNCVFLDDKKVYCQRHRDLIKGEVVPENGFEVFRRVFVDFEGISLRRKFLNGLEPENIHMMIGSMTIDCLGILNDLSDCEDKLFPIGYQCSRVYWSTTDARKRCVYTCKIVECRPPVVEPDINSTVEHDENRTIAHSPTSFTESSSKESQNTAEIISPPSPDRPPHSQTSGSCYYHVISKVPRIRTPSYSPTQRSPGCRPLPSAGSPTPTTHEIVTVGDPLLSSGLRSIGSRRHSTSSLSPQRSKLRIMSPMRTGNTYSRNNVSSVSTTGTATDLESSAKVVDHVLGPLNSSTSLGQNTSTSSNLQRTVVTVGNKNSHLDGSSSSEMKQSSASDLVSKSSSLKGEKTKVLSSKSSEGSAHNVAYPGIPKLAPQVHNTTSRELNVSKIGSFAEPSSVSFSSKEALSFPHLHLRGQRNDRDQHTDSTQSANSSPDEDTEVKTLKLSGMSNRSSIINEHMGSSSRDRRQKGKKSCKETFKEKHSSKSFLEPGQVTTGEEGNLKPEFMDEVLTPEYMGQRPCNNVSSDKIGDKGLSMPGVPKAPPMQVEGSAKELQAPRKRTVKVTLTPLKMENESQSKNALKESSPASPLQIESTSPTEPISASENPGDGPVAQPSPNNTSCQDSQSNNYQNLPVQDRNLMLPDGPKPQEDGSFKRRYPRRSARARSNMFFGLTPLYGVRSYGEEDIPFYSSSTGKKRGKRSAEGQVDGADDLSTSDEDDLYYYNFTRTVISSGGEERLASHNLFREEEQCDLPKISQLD
T5 sequence (Q03164 2719-3969 limits assumed): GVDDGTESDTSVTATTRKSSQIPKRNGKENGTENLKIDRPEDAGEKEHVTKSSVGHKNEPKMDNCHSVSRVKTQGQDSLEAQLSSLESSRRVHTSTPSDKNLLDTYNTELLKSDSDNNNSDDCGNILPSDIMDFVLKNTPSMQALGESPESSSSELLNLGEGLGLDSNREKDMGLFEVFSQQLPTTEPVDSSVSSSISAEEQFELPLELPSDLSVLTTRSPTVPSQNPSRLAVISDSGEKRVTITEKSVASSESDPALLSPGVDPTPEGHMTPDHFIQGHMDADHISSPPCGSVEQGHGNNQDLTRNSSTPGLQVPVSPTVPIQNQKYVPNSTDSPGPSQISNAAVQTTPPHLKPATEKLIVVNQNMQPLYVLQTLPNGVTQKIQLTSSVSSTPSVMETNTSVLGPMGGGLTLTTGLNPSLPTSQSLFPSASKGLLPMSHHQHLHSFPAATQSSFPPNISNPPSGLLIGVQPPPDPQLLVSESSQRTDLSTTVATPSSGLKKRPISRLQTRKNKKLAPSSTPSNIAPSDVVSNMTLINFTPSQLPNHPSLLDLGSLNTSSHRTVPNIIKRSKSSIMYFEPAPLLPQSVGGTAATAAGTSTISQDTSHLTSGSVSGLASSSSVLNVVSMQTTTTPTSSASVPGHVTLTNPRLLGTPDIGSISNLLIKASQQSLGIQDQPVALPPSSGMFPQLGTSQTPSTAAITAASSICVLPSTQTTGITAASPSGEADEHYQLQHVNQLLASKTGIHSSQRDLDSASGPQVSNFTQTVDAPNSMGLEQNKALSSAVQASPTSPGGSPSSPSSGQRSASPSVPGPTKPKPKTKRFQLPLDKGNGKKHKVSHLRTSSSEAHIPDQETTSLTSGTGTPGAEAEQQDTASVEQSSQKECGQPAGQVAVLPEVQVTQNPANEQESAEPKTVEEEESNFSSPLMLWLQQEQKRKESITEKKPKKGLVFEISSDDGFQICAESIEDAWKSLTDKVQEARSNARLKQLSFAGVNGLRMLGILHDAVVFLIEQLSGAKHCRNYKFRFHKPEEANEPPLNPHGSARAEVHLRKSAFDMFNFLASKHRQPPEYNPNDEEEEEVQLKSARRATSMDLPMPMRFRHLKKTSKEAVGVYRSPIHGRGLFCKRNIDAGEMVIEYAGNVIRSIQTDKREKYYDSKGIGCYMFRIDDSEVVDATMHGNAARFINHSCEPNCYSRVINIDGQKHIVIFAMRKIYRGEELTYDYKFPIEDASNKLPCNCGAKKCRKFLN

[14] = molecular target: T6, Histone-lysine N-methyltransferase KMT5C (Homo sapiens, UniProt Q86Y97); assay: Selectivity interaction (Methyltransferase panel (radioactive enzyme assay)) EUB0000216b SUV420H2
[15] = molecular target: T7, Histone-lysine N-methyltransferase SETDB1 (Homo sapiens, UniProt Q15047); assay: Selectivity interaction (Methyltransferase panel (radioactive enzyme assay)) EUB0000216b SETDB1
[16] = molecular target: T8, Histone-lysine N-methyltransferase SETD7 (Homo sapiens, UniProt Q8WTS6); assay: Selectivity interaction (Methyltransferase panel (radioactive enzyme assay)) EUB0000216b SETD7
T8 sequence (Q8WTS6 whole entry): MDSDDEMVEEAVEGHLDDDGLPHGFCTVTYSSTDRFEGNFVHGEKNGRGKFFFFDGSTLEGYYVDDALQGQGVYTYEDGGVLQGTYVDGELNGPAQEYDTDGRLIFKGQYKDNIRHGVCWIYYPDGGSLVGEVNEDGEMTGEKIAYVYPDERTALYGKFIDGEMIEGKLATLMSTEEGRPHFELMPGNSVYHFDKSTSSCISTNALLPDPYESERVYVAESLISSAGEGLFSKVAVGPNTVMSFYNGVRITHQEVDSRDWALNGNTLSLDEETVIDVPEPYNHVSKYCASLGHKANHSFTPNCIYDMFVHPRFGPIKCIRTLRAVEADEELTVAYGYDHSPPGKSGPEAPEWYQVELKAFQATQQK

[17] = molecular target: T9, N-lysine methyltransferase KMT5A (Homo sapiens, UniProt Q9NQR1); assay: Selectivity interaction (Methyltransferase panel (radioactive enzyme assay)) EUB0000216b SETD8
T9 sequence (Q9NQR1 whole entry): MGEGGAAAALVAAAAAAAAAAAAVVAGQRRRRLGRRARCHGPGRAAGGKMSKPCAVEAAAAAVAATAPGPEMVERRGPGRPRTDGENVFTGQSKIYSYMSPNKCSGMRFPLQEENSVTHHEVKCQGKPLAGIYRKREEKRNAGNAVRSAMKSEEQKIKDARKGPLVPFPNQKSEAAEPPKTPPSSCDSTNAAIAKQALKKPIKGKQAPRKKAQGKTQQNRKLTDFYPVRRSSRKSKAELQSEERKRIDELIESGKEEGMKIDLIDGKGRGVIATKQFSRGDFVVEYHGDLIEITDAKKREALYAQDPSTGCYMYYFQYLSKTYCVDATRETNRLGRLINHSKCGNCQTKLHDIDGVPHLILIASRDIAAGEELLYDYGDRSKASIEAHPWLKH

[18] = molecular target: T10, Histone-lysine N-methyltransferase EHMT2 (Homo sapiens, UniProt Q96KQ7); assay: Selectivity interaction (Methyltransferase panel (radioactive enzyme assay)) EUB0000216b EHMT2
[19] = molecular target: T11, Alpha-1A adrenergic receptor (Homo sapiens) (UniProt P35348); assay: Selectivity interaction (Receptor panel (Ricerca)) EUB0000216b ADRA1A; settings: at 1 µM
T11 sequence (whole entry): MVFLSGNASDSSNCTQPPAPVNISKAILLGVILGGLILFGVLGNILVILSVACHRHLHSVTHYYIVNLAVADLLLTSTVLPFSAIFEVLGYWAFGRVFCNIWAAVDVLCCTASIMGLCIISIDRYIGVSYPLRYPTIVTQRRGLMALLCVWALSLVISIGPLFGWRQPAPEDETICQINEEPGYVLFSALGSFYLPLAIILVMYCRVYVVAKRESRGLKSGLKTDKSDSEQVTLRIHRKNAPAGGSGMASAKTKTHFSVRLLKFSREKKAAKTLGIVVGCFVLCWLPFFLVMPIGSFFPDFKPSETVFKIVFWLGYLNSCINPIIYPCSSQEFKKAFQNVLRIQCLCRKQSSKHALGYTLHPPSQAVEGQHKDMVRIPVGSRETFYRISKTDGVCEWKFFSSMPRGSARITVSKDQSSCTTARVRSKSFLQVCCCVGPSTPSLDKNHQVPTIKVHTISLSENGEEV

[20] = molecular target: T12, Protein arginine N-methyltransferase 3 (Homo sapiens, UniProt O60678); assay: Selectivity interaction (Methyltransferase panel (radioactive enzyme assay)) EUB0000216b PRMT3
[21] = molecular target: T13, Histone-lysine N-methyltransferase EZH2 (Homo sapiens, UniProt Q15910); assay: Selectivity interaction (Methyltransferase panel (radioactive enzyme assay)) EUB0000216b EZH2
[22] = molecular target: T6, Histone-lysine N-methyltransferase KMT5C; assay: Selectivity interaction (Methyltransferase panel) EUB0000196bCl SUV420H2
[23] = molecular target: T5, Histone-lysine N-methyltransferase 2A; assay: Selectivity interaction (Methyltransferase panel) EUB0000196bCl MLL
[24] = molecular target: Histone-lysine N-methyltransferase KMT5B (Homo sapiens, UniProt Q4FZB7); assay: Selectivity interaction (Methyltransferase panel) EUB0000196bCl SUV420H1
[25] = molecular target: T9, N-lysine methyltransferase KMT5A; assay: Selectivity interaction (Methyltransferase panel) EUB0000196bCl SETD8
[26] = molecular target: T12, Protein arginine N-methyltransferase 3; assay: Selectivity interaction (Methyltransferase panel) EUB0000196bCl PRMT3
[27] = molecular target: DNA (cytosine-5)-methyltransferase 1 (Homo sapiens, UniProt P26358); assay: Selectivity interaction (Methyltransferase panel) EUB0000196bCl DNMT1
[28] = molecular target: Protein arginine N-methyltransferase 1 (Homo sapiens, UniProt Q99873); assay: Selectivity interaction (Methyltransferase panel) EUB0000196bCl PRMT1
[29] = molecular target: Kappa-type opioid receptor (Homo sapiens, UniProt P41145); assay: Selectivity interaction (Enzyme panel (ion channels, GPCRs, other targets)) EUB0000196bCl OPRK1
[30] = molecular target: T2, Protein arginine N-methyltransferase 5; assay: Selectivity interaction (Methyltransferase panel) EUB0000196bCl PRMT5
[31] = molecular target: T3, Histone-lysine N-methyltransferase SUV39H2; assay: Selectivity interaction (Methyltransferase panel) EUB0000196bCl SUV39H2
[32] = molecular target: T7, Histone-lysine N-methyltransferase SETDB1; assay: Selectivity interaction (Methyltransferase panel) EUB0000196bCl SETDB1
[33] = molecular target: Protein arginine N-methyltransferase 8 (Homo sapiens, UniProt Q9NR22); assay: Selectivity interaction (Methyltransferase panel) EUB0000196bCl PRMT8
[34] = molecular target: Histone-lysine N-methyltransferase, H3 lysine-79 specific (Homo sapiens, UniProt Q8TEK3); assay: Selectivity interaction (Methyltransferase panel) EUB0000196bCl DOT1L
[35] = molecular target: Histone-lysine N-methyltransferase SETD2 (Homo sapiens, UniProt Q9BYW2); assay: Selectivity interaction (Methyltransferase panel) EUB0000196bCl SETD2
[36] = molecular target: Histone-lysine N-methyltransferase NSD2 (Homo sapiens, UniProt O96028); assay: Selectivity interaction (Methyltransferase panel) EUB0000196bCl NSD2
[37] = molecular target: Bombesin receptor subtype-3 (Homo sapiens, UniProt P32247); assay: Selectivity interaction (Enzyme panel (ion channels, GPCRs, other targets)) EUB0000196bCl BRS3
[38] = molecular target: T4, Histone-lysine N-methyltransferase EHMT1; assay: Selectivity interaction (Methyltransferase panel) EUB0000196bCl EHMT1
[39] = molecular target: Motilin receptor (Homo sapiens) (UniProt O43193); assay: Selectivity interaction (Enzyme panel (ion channels, GPCRs, other targets)) EUB0000196bCl MLN
[40] = molecular target: T14, Histone-lysine N-methyltransferase EZH1 (Homo sapiens, UniProt Q92800); assay: Selectivity interaction (Methyltransferase panel) EUB0000196bCl EZH1
T14 sequence (Q92800 whole entry): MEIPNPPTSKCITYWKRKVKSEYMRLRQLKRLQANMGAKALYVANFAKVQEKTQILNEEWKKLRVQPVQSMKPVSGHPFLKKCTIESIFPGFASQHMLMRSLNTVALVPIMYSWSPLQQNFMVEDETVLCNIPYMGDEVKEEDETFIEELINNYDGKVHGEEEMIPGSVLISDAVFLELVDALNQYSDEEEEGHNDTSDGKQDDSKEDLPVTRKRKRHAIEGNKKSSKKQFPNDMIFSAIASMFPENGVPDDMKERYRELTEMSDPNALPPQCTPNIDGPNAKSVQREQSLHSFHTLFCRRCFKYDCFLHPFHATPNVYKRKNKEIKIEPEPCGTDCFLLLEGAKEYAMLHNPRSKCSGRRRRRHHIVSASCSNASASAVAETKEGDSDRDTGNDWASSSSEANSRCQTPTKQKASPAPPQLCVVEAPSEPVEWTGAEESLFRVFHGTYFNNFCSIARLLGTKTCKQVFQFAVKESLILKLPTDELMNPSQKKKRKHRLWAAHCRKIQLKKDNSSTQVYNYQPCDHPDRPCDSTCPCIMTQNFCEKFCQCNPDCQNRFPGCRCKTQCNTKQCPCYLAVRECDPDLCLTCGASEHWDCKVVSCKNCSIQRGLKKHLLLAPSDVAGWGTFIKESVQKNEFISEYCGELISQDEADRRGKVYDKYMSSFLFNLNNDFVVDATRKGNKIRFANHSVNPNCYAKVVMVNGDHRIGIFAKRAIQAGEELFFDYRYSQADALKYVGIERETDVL

[41] = molecular target: T10, Histone-lysine N-methyltransferase EHMT2; assay: Selectivity interaction (Methyltransferase panel) EUB0000196bCl EHMT2
[42] = molecular target: T8, Histone-lysine N-methyltransferase SETD7; assay: Selectivity interaction (ITC) EUB0000196bCl SETD7
[43] = molecular target: N-lysine methyltransferase SMYD2 (Homo sapiens, UniProt Q9NRG4); assay: Selectivity interaction (Methyltransferase panel) EUB0000196bCl SMYD2
[44] = molecular target: T13, Histone-lysine N-methyltransferase EZH2; assay: Selectivity interaction (Methyltransferase panel) EUB0000196bCl EZH2
[45] = molecular target: Adenosine receptor A2b (Homo sapiens, UniProt P29275); assay: Selectivity interaction (Enzyme panel (ion channels, GPCRs, other targets)) EUB0000196bCl ADORA2B

Kd [1]: 980 nM
SMILES: COc1cc(Nc2ccnc3ccc(Br)cc23)cc(OC)c1OC

% of control [2]: 69%
% of control [3]: 58%
Ki [4]: > 15 µM
% of control [5]: 60%
% of control [6]: 56%
% of control [7]: 61%
% of control [8]: 60%
% of control [9]: 55%
SMILES: O=C(NCC(=O)N1CCCC1)Nc1ccc2cnccc2c1

IC50 [10]: > 100 µM
IC50 [11]: > 100 µM
IC50 [12]: > 100 µM
IC50 [13]: > 100 µM
IC50 [14]: > 100 µM
IC50 [15]: > 100 µM
IC50 [16]: > 100 µM
IC50 [17]: > 100 µM
IC50 [18]: > 100 µM
% of inhibition [19]: 22%
IC50 [20]: > 100 µM
IC50 [21]: > 100 µM
SMILES: CC(C)N(CCCNC(=O)Nc1ccc(C(C)(C)C)cc1)C[C@H]1O[C@@H](n2cc(Br)c3c(N)ncnc32)[C@H](O)[C@@H]1O

EC50 [22]: > 10 µM
EC50 [23]: > 10 µM
EC50 [24]: > 10 µM
EC50 [25]: > 10 µM
EC50 [26]: > 10 µM
EC50 [27]: > 10 µM
EC50 [28]: > 10 µM
Ki [29]: 3.8 µM
EC50 [30]: > 10 µM
EC50 [31]: > 10 µM
EC50 [32]: > 10 µM
EC50 [33]: > 10 µM
EC50 [34]: > 10 µM
EC50 [35]: > 10 µM
EC50 [36]: > 10 µM
Ki [37]: 8.1 µM
EC50 [38]: > 10 µM
Ki [39]: 7.2 µM
EC50 [40]: > 10 µM
EC50 [41]: > 10 µM
Kd [42]: 18 nM
EC50 [43]: > 10 µM
EC50 [44]: > 10 µM
Ki [45]: 1300 nM
SMILES: O=C([C@@H](Cc1cccc(C(F)(F)F)c1)NS(=O)(=O)c1cc(F)c2c(c1)CCNC2)N1CCCC1
